How the values were obtained:
[1] = test system: human primary microvascular endothelial cells; assay: Fura-2 calcium imaging, microvascular endothelial cells; format: cell-based
Method: Human adult dermal microvascular endothelial cells (catalogue number CC-2543; cells had been characterised by tests for cell type markers: positive for acetylated LDL uptake, positive for factor VIII related antigen, negative for alpha smooth muscle actin)
(§1) For calcium imaging experiments cells were plated onto poly-L-lysine coated coverslips (13 mm). Single cell imaging was performed utilizing a MiraCal Imaging facility (Life Science Resources, Cambridge, U.K.) with a Nikon Diaphot-TMD inverted epifluorescence microscope equipped with a ×40 oil immersion objective and Sutter filter wheel. The imager was equipped with a Lambert intensifier 1187 (Life Sciences Resources) providing a ×30 enhancement of the fluorescent signal, thus limiting phototoxicity.
(§2) Fura-2 acetoxymethyl ester (fura-2 AM) incubations with the cells were performed at 37° C. in a medium containing (in mM): 120 NaCl, 3.5 KCl, 0.4 KH2PO4, 5 NaHCO3, 1.2 Na2SO4, 15 glucose, 1.2 MgCl2, 1 CaCl2, and 20 TES [N-tris(hydroxymethyl) methyl-2-aminoethane sulphonic acid] pH adjusted to 7.4 with NaOH. Typically cells were incubated in 3 μM fura-2 AM for 25 min., which permitted sufficient accumulation of free fura-2 in the cell cytoplasm. Cells were then illuminated alternately at 340 and 380 nm with the emitted 505 nm light being detected by a photomultiplier. Free fura emits maximally when excited at 380 nm, whilst the calcium bound fura has a maximal emission when excited at 340 nm. Thus the ratio of emission when alternately excited at 340/380 nm is a measure of the calcium concentration in equilibrium with the chelator. Changes of intracellular calcium were quantified as the percentage increase of the fluorescent ratio (determined at ˜505 nm) obtained by exciting the test cells alternatively at 340 nm (optimal for calcium bound dye) and 380 nm.

[2] = test system: MDA MB 468 cells; assay: Fura-2 calcium imaging, MDA MB 468 cells; format: cell-based, human; conditions: for % increase of cytosolic calcium / % increase of cytosolic calcium (peak 340/380 nm fura-2 ratio): MDA 468 cells
Method: Human mammary carcinoma (MDA MB 468) cells were obtained from ATCC, Manassas, Va., USA; catalogue number HTB-132; cells were grown in accordance with the manufacturer's instructions.
as §1, §2

[3] = test system: MCF-7 cells; assay: Fura-2 calcium imaging, MCF-7 cells; format: cell-based, human; conditions: 10 μM
Method: as §1
as §2, with “Free fura emits maximally when excited at 380 nm, whilst the calcium bound fura has a maximal emission when excited at 340 nm. Thus the ratio of emission when alternately excited at 340/380 nm is a measure of the calcium concentration in equilibrium with the chelator.” left out

[4] = test system: human prostate epithelial cells; assay: Fura-2 calcium imaging, prostate epithelial cells; format: cell-based
Method: Human prostate epithelial cells (catalogue number CC-2555; stain positive for cytokeratin 8,13.)
as §1
as §2, with “Free fura emits maximally when excited at 380 nm, whilst the calcium bound fura has a maximal emission when excited at 340 nm. Thus the ratio of emission when alternately excited at 340/380 nm is a measure of the calcium concentration in equilibrium with the chelator.” left out

[5] = test system: cerebellar granule neurones; assay: Fura-2 calcium imaging, cerebellar granule neurones; format: cell-based, rat; conditions: 3 μM; cerebellar granule cells
Method: Cerebellar granule cells were prepared from 6-7 day post natal rats as previously described (see Courtney, M. J., Lambert, J. J. and Nicholls, D. G. [1990] J. Neuroscience 10: 3873-3879).
as §1
Fura-2 acetoxymethyl ester (fura-2 AM) incubations with the cells were performed at 37° C. in a medium containing (in mM): 120 NaCl, 3.5 KCl, 0.4 KH2PO4, 5 NaHCO3, 1.2 Na2SO4, 15 glucose, 1.2 MgCl2, 1 CaCl2, and 20 TES [N-tris(hydroxymethyl) methyl-2-aminoethane sulphonic acid] pH adjusted to 7.4 with NaOH. […] Cells were then illuminated alternately at 340 and 380 nm with the emitted 505 nm light being detected by a photomultiplier. […] Changes of intracellular calcium were quantified as the percentage increase of the fluorescent ratio (determined at ˜505 nm) obtained by exciting the test cells alternatively at 340 nm (optimal for calcium bound dye) and 380 nm.

[6] = test system: adult dermal fibroblasts; assay: MTS cell viability/proliferation assay, adult dermal fibroblasts; format: cell-based, human; conditions: 1-10 μM
Method: This was carried out using an MTS assay (reagents from Promega Corporation, Madison Wis., USA) which is a modification of the MTT assay (as described in Jacobson et al, 1994 EMBO J Vol 13 pp1899-1910). The assay depends on conversion of the MTS tetrazolium compound to a coloured formazan product in metabolically active cells; it is therefore an assay of viable cell number. A decline in values implies cell killing as long as cell disappearance by apoptosis in untreated cell populations is absent or negligible (as with most healthy primary cell populations).
Cells were seeded in the range 1.5×10^5-1.8×10^5 cells per ml of culture medium in 96 well microtitre plates and allowed to attach in a humidifed atmosphere of 5% CO2 in air at 37 deg C. Drugs were added 18-24 hours later and cell viability/proliferation measured at time intervals up to 48-72 hours post-drug addition when the experiment was terminated. Mean (±SE) values at each time point were obtained from wells in triplicate.
Cell viability was measured as follows: 20 μl of MTS solution (Promega) was added to wells and incubated at 37 deg C. for 3 hours during which time a coloured formazan product is generated in viable cells. […] Viable cell number was then measured by reading absorbance at 490 nm in a Dynex microtitre plate reader. […]

[7] = test system: phospholipase C; assay: GFP-PH PLCdelta 1 relocalisation (PLC activation) in MDA MB 468 cells; format: cell-based, human
Source text: The inventors introduced a recombinant plasmid vector encoding a hybrid protein comprised of the pleckstrin homology (PH) domain of phospholipase C (PLC) delta 1 fused green fluorescent protein (GFP) (GFP-PH PLCdelta 1) into MDA MB 468 mammary carcinoma cells. A standard transfection method (Fugene-6—Roche) was used. […] Cells were maintained in DMEM with 10% fetal bovine serum at 37 deg C. in 5% CO2 before and during exposure to sigma ligands which were present at a range of concentrations. Effects on the GFP-PH PLCdelta 1 protein were studied in two ways: by time lapse microscopy (using a Leica inverted fluorescence microscope and a Hammamatsu Orca charge-coupled device camera, linked to an Improvision Open Lab image processing workstation). This enabled the time course of effects to be determined. […] Control cell populations received drug vehicle alone and were analysed at the same time points.
GFP-PH PLC delta 1—expressing MDA MB 468 cells were exposed to sigma antagonists in 1 mM and 0 mM (nominally calcium-free) buffer (as used for the calcium imaging experiments, described above) and monitored by time lapse imaging as above.

[8] = test system: PKB/Akt; assay: PKB immunoprecipitation activity assay in MDA MB 468 cells; format: cell-based, human
Method: All cells received 1% DMSOvehiclefor the duration of stimulation. […] Data pointsshown are the mean PKB activity relative to vehicle treated cells from three independently treated dishes of cells with error barsindicating the standard deviation. As controls, cells were treatedwith the PI 3-kinase inhibitor wortmannin for 30 minutes orstimulated with serum for 5 minutes; and
MDA MB 468 cells were exposed to the sigma antagonist IPAG at 100 μM and 10 μM concentrations for periods of time up to 4 hours. At intervals, cells were lysed and then subjected to PKB immunoprecipitation, precisely as has been described previously (Leslie et al., 2001, Biochemical Journal, Vol 357 p427). This method, which is recognised in the art, provides a quantitative measure of PKB activity. FIG. 5c depicts a concentration- and time-dependent decline in PKB activity when cells were exposed to IPAG.

[9] = biological target: sigma-1 sites (Homo sapiens, UniProt Q99720); conditions: Whittemore et al 1997; read-out: inhibition constant for sigma-1 sites; cited from earlier work
Sequence of sigma-1 sites (Q99720 whole entry): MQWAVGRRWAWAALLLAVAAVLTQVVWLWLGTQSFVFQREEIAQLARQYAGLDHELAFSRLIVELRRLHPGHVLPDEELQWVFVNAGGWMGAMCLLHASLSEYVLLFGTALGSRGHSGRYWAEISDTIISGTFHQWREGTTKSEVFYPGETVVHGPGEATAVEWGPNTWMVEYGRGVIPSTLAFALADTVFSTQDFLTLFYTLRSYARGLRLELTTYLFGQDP

[10] = 1-10 μM, microvascular endothelial cells

N=C(Nc1ccc(I)cc1)NC1C2CC3CC(C2)CC1C3 (centres unmarked) [IPAG, 1-(4-iodophenyl)-3-(2-adamantyl)guanidine]
% increase of cytosolic calcium (peak 340/380 nm fura-2 ratio) ([1]; 1 μM, microvascular endothelial cells): 119±13%
initial calcium rise above baseline, occurring within 1 minute ([1]; 10 μM, 1 mM, 0.1 mM and nominally calcium free medium): > 100%
% increase of cytosolic calcium (peak 340/380 nm fura-2 ratio) ([1]; 10 μM, microvascular endothelial cells): 293±14%
time to evident increase of cytosolic calcium after drug application [1, 10]: 5 to 10 s
time to peak effect on cytosolic calcium [1, 10]: ≤ 3 min
% increase of cytosolic calcium ([2]; 1 μM, 100 μM extracellular calcium): 40±14%
% increase of cytosolic calcium ([2]; 1 μM, 1 mM extracellular calcium (FIG. 3a experiment)): 157±10%
% increase of cytosolic calcium (peak 340/380 nm fura-2 ratio) ([2]; 1 μM): 54±7%
% increase of cytosolic calcium ([2]; 1 μM, absence of extracellular calcium): 1±0.4%
% increase of cytosolic calcium (peak 340/380 nm fura-2 ratio) ([2]; 3 μM): 112±8%
% increase of cytosolic calcium ([2]; 10 μM, 100 μM extracellular calcium): 237±12%
time of decline of intracellular calcium to baseline ([2]; 10 μM, 0.1 mM extracellular calcium, MDA MB 468 cells): ≤ 10 min
% increase of cytosolic calcium ([2]; 10 μM, 1 mM extracellular calcium (FIG. 3a experiment)): 230±12%
time calcium elevation remains close to peak levels ([2]; 10 μM, 1 mM extracellular calcium, MDA MB 468 cells): at least 30 minutes
% increase of cytosolic calcium (peak 340/380 nm fura-2 ratio) ([2]; 10 μM): 125±7%
time to peak effect on cytosolic calcium ([2]; 10 μM, MDA MB 468 cells): ≤ 5 min
% increase of cytosolic calcium ([2]; 10 μM, absence of extracellular calcium): 4±2%
effect on cytosolic calcium levels (in words) ([2]; MDA MB 468 cells, FIG. 2a: IPAG 1-10 μM, rimcazole 10-30 μM, (+)-SKF 10,047 10 μM, (+)-pentazocine 10-30 μM, ibogaine 10-50 μM): increase cytosolic calcium levels
time by which calcium levels have returned to baseline [3]: ≤ 30 min
time to peak effect on cytosolic calcium [3]: ≤ 5 min
% increase of cytosolic calcium (peak 340/380 nm fura-2 ratio) ([4]; 1 μM): 10±5%
% increase of cytosolic calcium (peak 340/380 nm fura-2 ratio) ([4]; 10 μM): 25±5%
% increase of cytosolic calcium (peak 340/380 nm fura-2 ratio) [5]: 20±2%
Cytotoxicity [6]: not cytotoxic
relocalisation of GFP-PH PLC delta 1 from membrane to cytosol ([7]; 100 μM, approximately 10 minutes, DMEM with 10% fetal bovine serum): pronounced relocalisation
localisation of GFP-PH PLC delta 1 ([7]; nominally calcium-free buffer (0 mM calcium)): remained membrane-localised
PKB activity ([8]; 10 μM, up to 4 hours): later decline in PKB activity
PKB activity ([8]; 100 μM, within 5 minutes, sustained to at least 30 minutes): profoundly inhibited PKB activity
Ki [9]: ~2.8 nM
